According to patent publication US11629171B2, “Beta-hairpin peptidomimetics” (POLYPHOR AG, priority 2017, dated 2023):
Values after ≈ are worked out from the molar mass of the structure shown. Where a SMILES comes first, the peptide text is derived from it. Bridges are numbered along the chain shown (N, C = ends). Roman numbers before positions name the chains, in order. [ ]: non-standard residue; d: D form. Leu(3R-OH) = CC(C)[C@@H](O)[C@H](N)C(=O)O; Tle = CC(C)(C)[C@H](N)C(=O)O; dDab = NCC[C@@H](N)C(=O)O; hSer = N[C@@H](CCO)C(=O)O; Orn = NCCC[C@H](N)C(=O)O; Dab = NCC[C@H](N)C(=O)O; Dap = NC[C@H](N)C(=O)O

What was measured:
Type in all cases: cell-based
[1] = tested on: Acinetobacter baumannii 872842; conditions: 872842
Description: (§1) The in vitro antimicrobial activities of the peptides were determined in 96-well plates (Greiner, polystyrene) by the standard CLSI broth microdilution method (Clinical and Laboratory Standards Institute 2014. Performance standards for antimicrobial susceptibility testing, 24th informational supplement. Approved standard CLSI M100-S24; Clinical and Laboratory Standards Institute, Wayne, Pa.). The following microorganisms were used to determine antibiotic activity of the peptides: Escherichia coli ATCC 25922, Klebsiella pneumoniae SSI #3010^a), Acinetobacter baumannii DSM 30008, Pseudomonas aeruginosa ATCC 27853 and the clinical isolates Escherichia coli 926415^b), Klebsiella pneumoniae 968733^b), Acinetobacter baumannii 872842^b), Enterobacter cloacae 848840^b) and Escherichia coli MCR-1 Af45^c). Before preparation of inocula, Escherichia coli MCR-1 Af45 was subcultured on Mueller-Hinton II (MH-cation adjusted) agar containing 2 μg/mL colistin. ^a) Obtained from Statens Serum Institut (SSI), Copenhagen, Denmark^b) Obtained from International Health Management Associates, Inc. (IHMA Europe Sàrl), Epalinges, Switzerland^c) Obtained from Prof. Patrice Nordmann, University of Fribourg, Fribourg, Switzerland
(§2) Inocula of the microorganisms were diluted into Mueller-Hinton II (MH-cation adjusted) broth and compared with a 0.5 McFarland standard to give appr. 10^6 colony forming units (CFU)/mL. Aliquots (90 μL) of inoculum were added to 10 μL of MH-II broth+P-80 (Polysorbate 80, 0.002% final concentration, v/v) containing the peptide in serial two-fold dilutions. Antimicrobial activities of the peptides were expressed as the minimal inhibitory concentration (MIC) in μg/mL at which no visible growth was observed after 18-20 hours of incubation at 35° C.

[2] = tested on: Acinetobacter baumannii DSM 30008; conditions: DSM 30008
Description: as §1, §2

[3] = tested on: Enterobacter cloacae 848840; conditions: 848840
Description: as §1, §2

Escherichia coli 926415 = conditions: 926415
Description: as §1, §2

[4] = tested on: Escherichia coli ATCC 25922; conditions: ATCC 25922
Description: as §1, §2

[5] = tested on: Klebsiella pneumoniae 968733; conditions: 968733
Description: as §1, §2

[6] = tested on: Klebsiella pneumoniae SSI #3010; conditions: SSI #3010
Description: as §1, §2

[7] = tested on: Pseudomonas aeruginosa ATCC 27853; conditions: ATCC 27853
Description: as §1, §2

[8] = tested on: human red blood cells (hRBC); test: Hemolysis; conditions: red cells of human, 1 h, 200
How it was run: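 Percent hemolysis relative to 2% Triton X-100 (100%) and PBS/10% water (0%), from blank-corrected OD540 of diluted supernatants. Peptides tested at 200 μg/mL against 20% (v/v) washed human erythrocytes, 1 h, 37° C, shaking at 300 rpm.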

| SMILES | MIC [1] [µg/mL] | MIC [2] [µg/mL] | MIC [3] [µg/mL] | MIC (Escherichia coli 926415) [µg/mL] | MIC [4] [µg/mL] | MIC [5] [µg/mL] | MIC [6] [µg/mL] | MIC [7] [µg/mL] | Hemolysis at 200 μg/mL [8] [%] |
| --- | --- | --- | --- | --- | --- | --- | --- | --- | --- |
| CC(=O)N[C@H](C(=O)N[C@H]1CCCNC(=O)[C@@H](CCC(N)=O)NC(=O)[C@H](C(C)(C)C)NC(=O)[C@H](CO)NC(=O)[C@H](Cc2c[nH]c3ccccc23)NC(=O)[C@H](CCO)NC(=O)[C@@H](CCN)NC(=O)[C@H](CCC(=O)N[C@@H](CCN)C(=O)N[C@H](C(=O)N[C@@H](CN)C(=O)N[C@H]2CCNC(=O)[C@H]([C@@H](C)O)NC(=O)[C@H](CCN)NC(=O)[C@H](CCN)NC(=O)[C@H](CC(C)C)NC(=O)[C@@H](CC(C)C)NC(=O)[C@H](CCN)NC2=O)[C@@H](C)O)NC(=O)[C@H](CO)NC(=O)[C@H](Cc2ccc(O)cc2)NC1=O)C(C)C [Ex. 20] (I: Ac-V[Orn]YSE[dDab][hSer]WS[Tle][dQ] / II: [Dab]T[Dap][Dab][Dab][dL]L[Dab][Dab]T; lactam I:2-I:C, II:4-II:C; amide I:5-II:N) | 0.5 (≈ 0.213 µM) | 0.125 (≈ 0.0532 µM) | 0.25 (≈ 0.106 µM) | 1 (≈ 0.426 µM) | 0.125 (≈ 0.0532 µM) | 2 (≈ 0.852 µM) | 0.125 (≈ 0.0532 µM) | 0.25 (≈ 0.106 µM) | <1 |
| CC(=O)N[C@@H](CC(C)C)C(=O)N[C@H]1CCCNC(=O)[C@@H]([C@H](C)O)NC(=O)[C@H](C(C)(C)C)NC(=O)[C@H](CO)NC(=O)[C@H](Cc2c[nH]c3ccccc23)NC(=O)[C@H](CCO)NC(=O)[C@@H](CCN)NC(=O)[C@H](CCC(=O)N[C@@H](CCN)C(=O)N[C@H](C(=O)N[C@@H](CN)C(=O)N[C@H]2CCNC(=O)[C@H]([C@@H](C)O)NC(=O)[C@H](CCN)NC(=O)[C@H](CCN)NC(=O)[C@H](CC(C)C)NC(=O)[C@@H](CC(C)C)NC(=O)[C@H](CCN)NC2=O)[C@@H](C)O)NC(=O)[C@H](CN)NC(=O)[C@H](Cc2ccc(O)cc2)NC1=O [Ex. 33] (I: Ac-L[Orn]Y[Dap]E[dDab][hSer]WS[Tle][dT] / II: [Dab]T[Dap][Dab][Dab][dL]L[Dab][Dab]T; lactam I:2-I:C, II:4-II:C; amide I:5-II:N) | 0.0625 (≈ 0.0268 µM) | 0.0625 (≈ 0.0268 µM) | 0.125 (≈ 0.0536 µM) | 0.125 (≈ 0.0536 µM) | 0.0625 (≈ 0.0268 µM) | 0.25 (≈ 0.107 µM) | 0.125 (≈ 0.0536 µM) | 0.25 (≈ 0.107 µM) | <1 |
| CC(=O)N[C@@H](CCN)C(=O)N[C@H](C(=O)N[C@H]1CSSC[C@@H](C(=O)N[C@H](C(N)=O)C(C)C)NC(=O)[C@H](C(C)C)NC(=O)[C@@H]2CSSC[C@H](NC(=O)[C@H](Cc3ccc(O)cc3)NC1=O)C(=O)N[C@@H](CCC(=O)N[C@@H](CCN)C(=O)N[C@H](C(=O)N[C@@H](CN)C(=O)N[C@H]1CCNC(=O)[C@H]([C@@H](C)O)NC(=O)[C@H](CCN)NC(=O)[C@H](CCN)NC(=O)[C@H](CC(C)C)NC(=O)[C@@H](CC(C)C)NC(=O)[C@H](CCN)NC1=O)[C@@H](C)O)C(=O)N[C@H](CCN)C(=O)N[C@@H](CO)C(=O)N[C@@H](Cc1c[nH]c3ccccc13)C(=O)N2)[C@H](O)C(C)C [Ex. 235] (I: Ac-[Dab][Leu(3R-OH)]CYCE[dDab]SWCVCV-NH2 / II: [Dab]T[Dap][Dab][Dab][dL]L[Dab][Dab]T; disulfide I:3-I:12, I:5-I:10; amide I:6-II:N; lactam II:4-II:C) | 0.0625 (≈ 0.0244 µM) | 0.0625 (≈ 0.0244 µM) | 0.25 (≈ 0.0977 µM) | 0.125 (≈ 0.0489 µM) | 0.0625 (≈ 0.0244 µM) | 0.25 (≈ 0.0977 µM) | 0.25 (≈ 0.0977 µM) | 0.25 (≈ 0.0977 µM) | 4 |
